From PubChem BioAssay (NCI)
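Five compound concentrations were applied to cells in 96-well plates for 48 hours; endpoints were derived by simple linear interpolation of the resulting dose-response curve. At the GI50, growth is halved. The concentration for full growth arrest is given as TGI.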

Key:
Experiment in all cases: growth of human tumour cells (NCI), 48 h
OVCAR-4 ovarian = test system: OVCAR-4 ovarian
NCI-H23 lung = test system: NCI-H23 lung
EKVX NSCLC = test system: EKVX NSCLC
HCT-116 colon = test system: HCT-116 colon
NCI-H460 lung = test system: NCI-H460 lung
HS 578T breast = test system: HS 578T breast
RPMI-8226 leukemia = test system: RPMI-8226 leukemia
MALME-3M melanoma = test system: MALME-3M melanoma
SF-268 CNS = test system: SF-268 CNS
MOLT-4 leukemia = test system: MOLT-4 leukemia
OVCAR-3 ovarian = test system: OVCAR-3 ovarian
T-47D breast = test system: T-47D breast
SF-295 CNS = test system: SF-295 CNS
LOX IMVI melanoma = test system: LOX IMVI melanoma
SN12C renal = test system: SN12C renal
HCT-15 colon = test system: HCT-15 colon
M14 melanoma = test system: M14 melanoma
MDA-MB-435 = test system: MDA-MB-435
MCF7 breast = test system: MCF7 breast
UO-31 renal = test system: UO-31 renal
IGROV1 ovarian = test system: IGROV1 ovarian
COLO 205 colon = test system: COLO 205 colon
NCI-H226 lung = test system: NCI-H226 lung
OVCAR-5 ovarian = test system: OVCAR-5 ovarian
DU-145 prostate = test system: DU-145 prostate
HOP-62 NSCLC = test system: HOP-62 NSCLC
ACHN renal = test system: ACHN renal
SW-620 colon = test system: SW-620 colon
HT29 colon = test system: HT29 colon
U251 CNS = test system: U251 CNS
SK-MEL-2 melanoma = test system: SK-MEL-2 melanoma
UACC-257 melanoma = test system: UACC-257 melanoma
KM12 colon = test system: KM12 colon
NCI-H522 lung = test system: NCI-H522 lung
SR leukemia = test system: SR leukemia
CCRF-CEM leukemia = test system: CCRF-CEM leukemia
HCC-2998 colon = test system: HCC-2998 colon
OVCAR-8 ovarian = test system: OVCAR-8 ovarian
SNB-19 CNS = test system: SNB-19 CNS
SK-MEL-5 melanoma = test system: SK-MEL-5 melanoma
PC-3 prostate = test system: PC-3 prostate
NCI/ADR-RES ovarian = test system: NCI/ADR-RES ovarian
K-562 leukemia = test system: K-562 leukemia
MDA-MB-231 breast = test system: MDA-MB-231 breast
UACC-62 melanoma = test system: UACC-62 melanoma
A549 NSCLC = test system: A549 NSCLC
786-0 renal = test system: 786-0 renal
HOP-92 NSCLC = test system: HOP-92 NSCLC
SK-OV-3 ovarian = test system: SK-OV-3 ovarian
SNB-75 CNS = test system: SNB-75 CNS
CAKI-1 renal = test system: CAKI-1 renal
TK-10 renal = test system: TK-10 renal

c1ccc(C2=Nc3ccccc3N3CNN=C23)cc1
GI50 (OVCAR-4 ovarian): > 100 µM | TGI (OVCAR-4 ovarian): > 100 µM | GI50 (NCI-H23 lung): > 100 µM | TGI (NCI-H23 lung): > 100 µM | GI50 (EKVX NSCLC): 47.9 µM | TGI (EKVX NSCLC): > 100 µM | GI50 (HCT-116 colon): > 100 µM | TGI (HCT-116 colon): > 100 µM | GI50 (NCI-H460 lung): > 100 µM | TGI (NCI-H460 lung): > 100 µM | GI50 (HS 578T breast): 81.8 µM | TGI (HS 578T breast): > 100 µM | GI50 (RPMI-8226 leukemia): 31.6 µM | TGI (RPMI-8226 leukemia): > 100 µM | GI50 (MALME-3M melanoma): > 100 µM | TGI (MALME-3M melanoma): > 100 µM | GI50 (SF-268 CNS): > 100 µM | TGI (SF-268 CNS): > 100 µM | GI50 (MOLT-4 leukemia): 24.2 µM | TGI (MOLT-4 leukemia): > 100 µM | GI50 (OVCAR-3 ovarian): 84.4 µM | TGI (OVCAR-3 ovarian): > 100 µM | GI50 (T-47D breast): 74.8 µM | TGI (T-47D breast): > 100 µM | GI50 (SF-295 CNS): > 100 µM | TGI (SF-295 CNS): > 100 µM | GI50 (LOX IMVI melanoma): > 100 µM | TGI (LOX IMVI melanoma): > 100 µM | GI50 (SN12C renal): > 100 µM | TGI (SN12C renal): > 100 µM | GI50 (HCT-15 colon): 90.6 µM | TGI (HCT-15 colon): > 100 µM | GI50 (M14 melanoma): > 100 µM | TGI (M14 melanoma): > 100 µM | GI50 (MDA-MB-435): > 100 µM | TGI (MDA-MB-435): > 100 µM | GI50 (MCF7 breast): > 100 µM | TGI (MCF7 breast): > 100 µM | GI50 (UO-31 renal): > 100 µM | TGI (UO-31 renal): > 100 µM | GI50 (IGROV1 ovarian): > 100 µM | TGI (IGROV1 ovarian): > 100 µM | GI50 (COLO 205 colon): > 100 µM | TGI (COLO 205 colon): > 100 µM | GI50 (NCI-H226 lung): > 100 µM | TGI (NCI-H226 lung): > 100 µM | GI50 (OVCAR-5 ovarian): > 100 µM | TGI (OVCAR-5 ovarian): > 100 µM | GI50 (DU-145 prostate): 81.9 µM | TGI (DU-145 prostate): > 100 µM | GI50 (HOP-62 NSCLC): > 100 µM | TGI (HOP-62 NSCLC): > 100 µM | GI50 (ACHN renal): > 100 µM | TGI (ACHN renal): > 100 µM | GI50 (SW-620 colon): > 100 µM | TGI (SW-620 colon): > 100 µM | GI50 (HT29 colon): 52.2 µM | TGI (HT29 colon): > 100 µM | GI50 (U251 CNS): > 100 µM | TGI (U251 CNS): > 100 µM | GI50 (SK-MEL-2 melanoma): > 100 µM | TGI (SK-MEL-2 melanoma): > 100 µM | GI50 (UACC-257 melanoma): > 100 µM | TGI (UACC-257 melanoma): > 100 µM | GI50 (KM12 colon): > 100 µM | TGI (KM12 colon): > 100 µM | GI50 (NCI-H522 lung): > 100 µM | TGI (NCI-H522 lung): > 100 µM | GI50 (SR leukemia): 25 µM | TGI (SR leukemia): > 100 µM | GI50 (CCRF-CEM leukemia): > 100 µM | TGI (CCRF-CEM leukemia): > 100 µM | GI50 (HCC-2998 colon): > 100 µM | TGI (HCC-2998 colon): > 100 µM | GI50 (OVCAR-8 ovarian): > 100 µM | TGI (OVCAR-8 ovarian): > 100 µM | GI50 (SNB-19 CNS): > 100 µM | TGI (SNB-19 CNS): > 100 µM | GI50 (SK-MEL-5 melanoma): 63.6 µM | TGI (SK-MEL-5 melanoma): > 100 µM | GI50 (PC-3 prostate): > 100 µM | TGI (PC-3 prostate): > 100 µM | GI50 (NCI/ADR-RES ovarian): > 100 µM | TGI (NCI/ADR-RES ovarian): > 100 µM | GI50 (K-562 leukemia): 90.1 µM | TGI (K-562 leukemia): > 100 µM | GI50 (MDA-MB-231 breast): 40.7 µM | TGI (MDA-MB-231 breast): > 100 µM | GI50 (UACC-62 melanoma): > 100 µM | TGI (UACC-62 melanoma): > 100 µM | GI50 (A549 NSCLC): > 100 µM | TGI (A549 NSCLC): > 100 µM | GI50 (786-0 renal): > 100 µM | TGI (786-0 renal): > 100 µM | GI50 (HOP-92 NSCLC): 15 µM | TGI (HOP-92 NSCLC): 51.5 µM | GI50 (SK-OV-3 ovarian): > 100 µM | TGI (SK-OV-3 ovarian): > 100 µM | GI50 (SNB-75 CNS): 25.8 µM | TGI (SNB-75 CNS): 86.6 µM | GI50 (CAKI-1 renal): > 100 µM | TGI (CAKI-1 renal): > 100 µM | GI50 (TK-10 renal): 79.4 µM | TGI (TK-10 renal): > 100 µM
